Data: US20260234135A1, “CRYSTALLINE FORMS OR SALTS OF A DEUTERATED COMPOUND” (ALEBUND PHARMACEUTICALS (HONG KONG) LIMITED, priority 2023, published 2026)
Where two headings read alike, the source gives them in different places.

Assays:
[1] = Hygroscopicity evaluation by DVS at 25° C.; format: physicochemical; conditions: for Water uptake up to 80% RH: DVS, 25° C.; for Form change after DVS test: XRPD after DVS
Experimental: DVS was measured via a SMS (Surface Measurement Systems) DVS Intrinsic. The relative humidity at 25° C. were calibrated against deliquescence point of LiCl, Mg(NO3)2 and KCl.

[2H]C([2H])(Cc1nc(-c2ccccc2)oc1C)Oc1ccc(C[C@H](OC)C(=O)[O-])c2sccc12.[K+] [K salt Form C]
Water uptake up to 80% RH [1]: 12.0% | Form change after DVS test [1]: form change was observed | Area (%) of impurity peak RRT 1.34 (40° C./75% RH, 2 weeks): 0.24% | Area (%) of impurity peak RRT 1.34 (40° C./75% RH, 4 weeks): 0.25% | Area (%) of impurity peak RRT 1.34 (40° C./75% RH, 8 weeks): 0.25% | HPLC Purity (area %), main peak RRT 1.00 (40° C./75% RH/open, 2 weeks): 99.76 area % | HPLC Reults of initial (%) (40° C./75% RH/open, 2 weeks): 100.01% | HPLC Purity (area %), main peak RRT 1.00 (40° C./75% RH/open, 4 weeks): 99.75 area % | HPLC Reults of initial (%) (40° C./75% RH/open, 4 weeks): 100.00% | HPLC Purity (area %), main peak RRT 1.00 (40° C./75% RH/open, 8 weeks): 99.75 area % | HPLC Reults of initial (%) (40° C./75% RH/open, 8 weeks): 100.00% | Area (%) of impurity peak RRT 0.88 (60° C., 2 weeks): 0.10% | Area (%) of impurity peak RRT 1.14 (60° C., 2 weeks): 0.07% | Area (%) of impurity peak RRT 1.34 (60° C., 2 weeks): 0.26% | Area (%) of impurity peak RRT 0.88 (60° C., 4 weeks): 0.08% | Area (%) of impurity peak RRT 1.14 (60° C., 4 weeks): 0.04% | Area (%) of impurity peak RRT 1.34 (60° C., 4 weeks): 0.24% | Area (%) of impurity peak RRT 0.88 (60° C., 8 weeks): 0.09% | Area (%) of impurity peak RRT 1.34 (60° C., 8 weeks): 0.24% | Form or purity change after storage (60° C./close and 40° C./75% RH/open for 2/4/8 weeks): No purity decrease but form change | HPLC Purity (area %), main peak RRT 1.00 (60° C./close, 2 weeks): 99.57 area % | HPLC Reults of initial (%) (60° C./close, 2 weeks): 99.82% | HPLC Purity (area %), main peak RRT 1.00 (60° C./close, 4 weeks): 99.64 area % | HPLC Reults of initial (%) (60° C./close, 4 weeks): 99.89% | HPLC Purity (area %), main peak RRT 1.00 (60° C./close, 8 weeks): 99.67 area % | HPLC Reults of initial (%) (60° C./close, 8 weeks): 99.92% | Area (%) of impurity peak RRT 1.34 (Initial): 0.25% | HPLC Purity (area %), main peak RRT 1.00 (Initial): 99.75 area %

[2H]C([2H])(Cc1nc(-c2ccccc2)oc1C)Oc1ccc(C[C@H](OC)C(=O)[O-])c2sccc12.[Na+] [Na salt Form A]
Water uptake up to 80% RH [1]: 5.5% | Form change after DVS test [1]: form change was observed | Area (%) of impurity peak RRT 0.89 (40° C./75% RH, 2 weeks): 0.04% | Area (%) of impurity peak RRT 1.14 (40° C./75% RH, 2 weeks): 0.03% | Area (%) of impurity peak RRT 1.34 (40° C./75% RH, 2 weeks): 0.23% | Area (%) of impurity peak RRT 0.89 (40° C./75% RH, 4 weeks): 0.07% | Area (%) of impurity peak RRT 1.34 (40° C./75% RH, 4 weeks): 0.23% | Area (%) of impurity peak RRT 0.89 (40° C./75% RH, 8 weeks): 0.05% | Area (%) of impurity peak RRT 1.34 (40° C./75% RH, 8 weeks): 0.24% | HPLC Purity (area %), main peak RRT 1.00 (40° C./75% RH/open, 2 weeks): 99.71 area % | HPLC Reults of initial (%) (40° C./75% RH/open, 2 weeks): 100.03% | HPLC Purity (area %), main peak RRT 1.00 (40° C./75% RH/open, 4 weeks): 99.69 area % | HPLC Reults of initial (%) (40° C./75% RH/open, 4 weeks): 100.02% | HPLC Purity (area %), main peak RRT 1.00 (40° C./75% RH/open, 8 weeks): 99.71 area % | HPLC Reults of initial (%) (40° C./75% RH/open, 8 weeks): 100.03% | Form or purity change after storage (60° C. for 8 weeks): Slightly purity decrease and form change | Area (%) of impurity peak RRT 0.58 (60° C., 2 weeks): 0.10% | Area (%) of impurity peak RRT 0.79 (60° C., 2 weeks): 0.07% | Area (%) of impurity peak RRT 0.81 (60° C., 2 weeks): 0.10% | Area (%) of impurity peak RRT 0.89 (60° C., 2 weeks): 0.08% | Area (%) of impurity peak RRT 0.91 (60° C., 2 weeks): 0.05% | Area (%) of impurity peak RRT 1.14 (60° C., 2 weeks): 0.05% | Area (%) of impurity peak RRT 1.34 (60° C., 2 weeks): 0.22% | Area (%) of impurity peak RRT 0.29 (60° C., 4 weeks): 0.07% | Area (%) of impurity peak RRT 0.58 (60° C., 4 weeks): 0.16% | Area (%) of impurity peak RRT 0.63 (60° C., 4 weeks): 0.05% | Area (%) of impurity peak RRT 0.79 (60° C., 4 weeks): 0.13% | Area (%) of impurity peak RRT 0.81 (60° C., 4 weeks): 0.20% | Area (%) of impurity peak RRT 0.86 (60° C., 4 weeks): 0.06% | Area (%) of impurity peak RRT 0.89 (60° C., 4 weeks): 0.08% | Area (%) of impurity peak RRT 0.91 (60° C., 4 weeks): 0.10% | Area (%) of impurity peak RRT 0.95 (60° C., 4 weeks): 0.05% | Area (%) of impurity peak RRT 1.34 (60° C., 4 weeks): 0.20% | Area (%) of impurity peak RRT 0.29 (60° C., 8 weeks): 0.11% | Area (%) of impurity peak RRT 0.58 (60° C., 8 weeks): 0.25% | Area (%) of impurity peak RRT 0.63 (60° C., 8 weeks): 0.12% | Area (%) of impurity peak RRT 0.79 (60° C., 8 weeks): 0.19% | Area (%) of impurity peak RRT 0.81 (60° C., 8 weeks): 0.35% | Area (%) of impurity peak RRT 0.86 (60° C., 8 weeks): 0.06% | Area (%) of impurity peak RRT 0.91 (60° C., 8 weeks): 0.21% | Area (%) of impurity peak RRT 0.95 (60° C., 8 weeks): 0.09% | Area (%) of impurity peak RRT 1.34 (60° C., 8 weeks): 0.20% | HPLC Purity (area %), main peak RRT 1.00 (60° C./close, 2 weeks): 99.33 area % | HPLC Reults of initial (%) (60° C./close, 2 weeks): 99.65% | HPLC Purity (area %), main peak RRT 1.00 (60° C./close, 4 weeks): 98.91 area % | HPLC Reults of initial (%) (60° C./close, 4 weeks): 99.23% | HPLC Purity (area %), main peak RRT 1.00 (60° C./close, 8 weeks): 98.43 area % | HPLC Reults of initial (%) (60° C./close, 8 weeks): 98.75% | Area (%) of impurity peak RRT 0.89 (Initial): 0.05% | Area (%) of impurity peak RRT 1.14 (Initial): 0.05% | Area (%) of impurity peak RRT 1.34 (Initial): 0.22% | HPLC Purity (area %), main peak RRT 1.00 (Initial): 99.68 area % | Form (XRPD after 40° C./75% RH/open, 2/4/8 weeks): New form
